Reference: paper PMC6407917, “Identification of GSK3186899/DDD853651 as a Preclinical Development Candidate for the Treatment of Visceral Leishmaniasis” (Journal of Medicinal Chemistry, 2018)

Legend:
Assay in all cases: biochemical
Design in all cases: species or system HEK293/K-562/placenta mixed human extract; Kinobeads chemoproteomic competition binding, quantified by TMT LC-MS/MS, dose response up to 20 uM
CAMK2B = CAMK2B (Homo sapiens, UniProt Q13554)
CDC42BPA = CDC42BPA (Homo sapiens, UniProt Q5VT25)
CDK9 = CDK9 (Homo sapiens, UniProt P50750)
CSK = CSK (Homo sapiens, UniProt P41240)
EGFR = EGFR (Homo sapiens, UniProt P00533)
ERN1 = ERN1 (Homo sapiens, UniProt O75460)
FLT4 = FLT4 (Homo sapiens, UniProt P35916)
IKBKG = IKBKG (Homo sapiens, UniProt Q9Y6K9)
KDR = KDR (Homo sapiens, UniProt P35968)
KIT = KIT (Homo sapiens, UniProt P10721)
MAP2K3 = MAP2K3 (Homo sapiens, UniProt P46734)
MAP2K5 = MAP2K5 (Homo sapiens, UniProt Q13163)
PHKG2 = PHKG2 (Homo sapiens, UniProt P15735)
PKN1 = PKN1 (Homo sapiens, UniProt Q16512)
PRKAA2 = PRKAA2 (Homo sapiens, UniProt P54646)
PRKD2 = PRKD2 (Homo sapiens, UniProt Q9BZL6)
PRKX = PRKX (Homo sapiens, UniProt P51817)
SYK = SYK (Homo sapiens, UniProt P43405)
TEC = TEC (Homo sapiens, UniProt P42680)
TNK1 = TNK1 (Homo sapiens, UniProt Q13470)
TYK2 = TYK2 (Homo sapiens, UniProt P29597)

Measured: IC50

Sequence of FLT4 (P35916 whole entry): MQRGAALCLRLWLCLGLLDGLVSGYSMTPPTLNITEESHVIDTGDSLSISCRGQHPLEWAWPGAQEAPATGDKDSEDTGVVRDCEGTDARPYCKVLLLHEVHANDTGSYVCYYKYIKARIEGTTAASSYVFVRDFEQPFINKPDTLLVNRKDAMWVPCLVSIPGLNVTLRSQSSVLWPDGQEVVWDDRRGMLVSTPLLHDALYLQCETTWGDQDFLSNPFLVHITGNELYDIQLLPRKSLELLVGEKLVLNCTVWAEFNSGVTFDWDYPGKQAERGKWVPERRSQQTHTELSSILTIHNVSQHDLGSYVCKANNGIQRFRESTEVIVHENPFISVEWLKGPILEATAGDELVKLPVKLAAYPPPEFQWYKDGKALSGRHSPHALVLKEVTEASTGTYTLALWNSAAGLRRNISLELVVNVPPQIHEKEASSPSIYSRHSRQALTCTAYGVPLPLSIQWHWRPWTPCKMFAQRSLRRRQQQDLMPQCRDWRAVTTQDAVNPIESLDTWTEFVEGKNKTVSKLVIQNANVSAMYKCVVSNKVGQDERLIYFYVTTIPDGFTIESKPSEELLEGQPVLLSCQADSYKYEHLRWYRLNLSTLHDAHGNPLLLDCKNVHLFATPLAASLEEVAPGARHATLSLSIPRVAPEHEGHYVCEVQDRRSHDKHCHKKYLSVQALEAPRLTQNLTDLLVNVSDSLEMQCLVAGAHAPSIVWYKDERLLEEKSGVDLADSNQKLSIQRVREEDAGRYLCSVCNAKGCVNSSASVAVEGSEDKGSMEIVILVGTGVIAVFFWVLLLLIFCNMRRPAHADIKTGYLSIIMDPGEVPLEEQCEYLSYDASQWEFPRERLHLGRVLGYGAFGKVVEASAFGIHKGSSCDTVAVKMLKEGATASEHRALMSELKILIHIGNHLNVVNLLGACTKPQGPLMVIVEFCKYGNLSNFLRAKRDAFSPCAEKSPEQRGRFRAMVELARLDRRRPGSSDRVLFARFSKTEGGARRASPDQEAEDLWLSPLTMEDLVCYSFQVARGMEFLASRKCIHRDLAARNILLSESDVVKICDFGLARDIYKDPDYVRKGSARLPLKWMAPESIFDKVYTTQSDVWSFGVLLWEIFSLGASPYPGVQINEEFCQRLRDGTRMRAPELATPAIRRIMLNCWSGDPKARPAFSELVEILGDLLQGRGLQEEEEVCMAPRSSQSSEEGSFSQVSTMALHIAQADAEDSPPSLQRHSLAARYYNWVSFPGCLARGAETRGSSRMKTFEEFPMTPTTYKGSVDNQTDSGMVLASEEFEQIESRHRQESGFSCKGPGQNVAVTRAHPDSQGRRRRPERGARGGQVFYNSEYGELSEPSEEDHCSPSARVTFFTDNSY
Sequence of CAMK2B (Q13554 whole entry): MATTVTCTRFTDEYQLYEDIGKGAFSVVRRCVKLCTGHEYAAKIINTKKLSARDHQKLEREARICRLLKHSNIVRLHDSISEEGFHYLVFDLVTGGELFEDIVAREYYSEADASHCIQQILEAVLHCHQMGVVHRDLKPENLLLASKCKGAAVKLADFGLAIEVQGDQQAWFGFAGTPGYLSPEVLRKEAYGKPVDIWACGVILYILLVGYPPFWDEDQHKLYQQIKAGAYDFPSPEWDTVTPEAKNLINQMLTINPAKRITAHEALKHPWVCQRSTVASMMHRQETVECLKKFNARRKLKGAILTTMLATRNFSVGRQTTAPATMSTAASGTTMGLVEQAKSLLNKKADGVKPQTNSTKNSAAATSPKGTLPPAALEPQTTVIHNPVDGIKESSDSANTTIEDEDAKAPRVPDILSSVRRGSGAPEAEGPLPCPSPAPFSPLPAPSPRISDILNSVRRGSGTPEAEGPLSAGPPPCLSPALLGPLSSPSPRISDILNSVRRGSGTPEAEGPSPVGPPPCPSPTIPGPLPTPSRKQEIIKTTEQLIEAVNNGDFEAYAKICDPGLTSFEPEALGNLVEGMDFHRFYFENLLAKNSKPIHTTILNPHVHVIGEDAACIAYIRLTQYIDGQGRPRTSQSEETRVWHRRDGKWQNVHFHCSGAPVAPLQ
Sequence of CDC42BPA (Q5VT25 whole entry): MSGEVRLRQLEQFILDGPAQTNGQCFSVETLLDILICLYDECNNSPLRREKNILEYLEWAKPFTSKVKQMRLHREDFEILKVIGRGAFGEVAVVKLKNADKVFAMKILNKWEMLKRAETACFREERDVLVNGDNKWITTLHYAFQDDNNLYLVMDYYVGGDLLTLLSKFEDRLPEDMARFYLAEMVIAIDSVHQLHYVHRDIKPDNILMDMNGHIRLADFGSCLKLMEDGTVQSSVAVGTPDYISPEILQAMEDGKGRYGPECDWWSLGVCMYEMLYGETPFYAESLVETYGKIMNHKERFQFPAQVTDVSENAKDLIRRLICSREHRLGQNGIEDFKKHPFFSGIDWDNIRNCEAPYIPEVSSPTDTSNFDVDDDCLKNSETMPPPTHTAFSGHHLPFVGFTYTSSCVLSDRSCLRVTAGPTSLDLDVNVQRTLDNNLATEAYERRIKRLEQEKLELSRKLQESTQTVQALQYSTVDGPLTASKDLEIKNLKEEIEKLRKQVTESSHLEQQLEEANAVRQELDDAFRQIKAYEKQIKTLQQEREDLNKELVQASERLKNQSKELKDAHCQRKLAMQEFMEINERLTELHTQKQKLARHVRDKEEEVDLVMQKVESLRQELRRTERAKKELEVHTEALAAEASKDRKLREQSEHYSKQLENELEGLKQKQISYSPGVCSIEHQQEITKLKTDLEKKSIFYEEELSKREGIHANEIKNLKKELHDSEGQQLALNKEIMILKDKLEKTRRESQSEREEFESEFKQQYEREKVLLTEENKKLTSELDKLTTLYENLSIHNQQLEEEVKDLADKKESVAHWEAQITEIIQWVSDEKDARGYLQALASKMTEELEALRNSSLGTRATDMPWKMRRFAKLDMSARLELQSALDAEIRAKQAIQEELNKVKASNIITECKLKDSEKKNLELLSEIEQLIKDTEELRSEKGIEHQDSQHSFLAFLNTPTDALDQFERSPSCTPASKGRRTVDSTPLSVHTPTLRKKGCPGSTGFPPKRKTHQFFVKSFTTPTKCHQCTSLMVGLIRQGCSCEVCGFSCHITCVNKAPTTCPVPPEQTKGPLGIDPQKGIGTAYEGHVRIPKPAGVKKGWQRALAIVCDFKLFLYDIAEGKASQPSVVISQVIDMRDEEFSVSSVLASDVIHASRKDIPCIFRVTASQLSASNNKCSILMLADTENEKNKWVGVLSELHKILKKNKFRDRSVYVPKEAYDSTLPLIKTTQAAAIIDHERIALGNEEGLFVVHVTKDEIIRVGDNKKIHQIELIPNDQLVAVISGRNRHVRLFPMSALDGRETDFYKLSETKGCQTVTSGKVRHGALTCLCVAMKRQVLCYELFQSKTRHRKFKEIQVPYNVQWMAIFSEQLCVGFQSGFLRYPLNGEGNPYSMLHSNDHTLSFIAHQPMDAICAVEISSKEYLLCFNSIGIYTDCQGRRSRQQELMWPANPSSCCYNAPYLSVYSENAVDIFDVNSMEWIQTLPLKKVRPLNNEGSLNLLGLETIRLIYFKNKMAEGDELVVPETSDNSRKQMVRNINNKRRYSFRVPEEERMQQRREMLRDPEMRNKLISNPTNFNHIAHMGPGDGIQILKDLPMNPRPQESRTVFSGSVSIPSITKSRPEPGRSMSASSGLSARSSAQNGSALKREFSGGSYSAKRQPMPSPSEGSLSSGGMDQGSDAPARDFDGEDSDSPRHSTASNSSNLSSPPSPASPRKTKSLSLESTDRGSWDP
Sequence of KIT (P10721 whole entry): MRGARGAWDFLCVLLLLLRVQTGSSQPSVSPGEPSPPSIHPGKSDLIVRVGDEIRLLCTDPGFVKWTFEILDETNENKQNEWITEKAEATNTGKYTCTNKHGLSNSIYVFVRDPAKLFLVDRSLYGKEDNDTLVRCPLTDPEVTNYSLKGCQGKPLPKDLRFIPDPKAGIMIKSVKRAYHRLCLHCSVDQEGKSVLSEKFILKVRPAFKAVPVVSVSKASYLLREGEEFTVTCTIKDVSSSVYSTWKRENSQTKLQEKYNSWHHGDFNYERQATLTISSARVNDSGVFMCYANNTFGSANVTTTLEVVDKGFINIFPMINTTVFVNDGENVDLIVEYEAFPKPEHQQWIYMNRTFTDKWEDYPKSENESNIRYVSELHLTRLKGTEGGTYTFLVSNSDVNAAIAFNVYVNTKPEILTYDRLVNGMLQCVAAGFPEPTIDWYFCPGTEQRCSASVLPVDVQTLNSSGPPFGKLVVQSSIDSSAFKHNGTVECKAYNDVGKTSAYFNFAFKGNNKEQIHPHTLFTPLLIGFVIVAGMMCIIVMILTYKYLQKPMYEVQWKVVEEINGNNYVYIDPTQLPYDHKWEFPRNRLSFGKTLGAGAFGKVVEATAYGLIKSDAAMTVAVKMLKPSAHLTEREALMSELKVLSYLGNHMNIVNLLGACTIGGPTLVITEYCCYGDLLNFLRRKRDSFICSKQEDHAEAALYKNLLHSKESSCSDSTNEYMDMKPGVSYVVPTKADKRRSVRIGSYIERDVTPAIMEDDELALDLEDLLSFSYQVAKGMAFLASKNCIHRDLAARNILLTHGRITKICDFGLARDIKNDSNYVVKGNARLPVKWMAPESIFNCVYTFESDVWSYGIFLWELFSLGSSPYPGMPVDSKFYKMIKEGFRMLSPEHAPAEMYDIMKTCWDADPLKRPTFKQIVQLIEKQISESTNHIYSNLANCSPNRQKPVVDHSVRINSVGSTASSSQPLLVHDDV
Sequence of CDK9 (P50750 whole entry): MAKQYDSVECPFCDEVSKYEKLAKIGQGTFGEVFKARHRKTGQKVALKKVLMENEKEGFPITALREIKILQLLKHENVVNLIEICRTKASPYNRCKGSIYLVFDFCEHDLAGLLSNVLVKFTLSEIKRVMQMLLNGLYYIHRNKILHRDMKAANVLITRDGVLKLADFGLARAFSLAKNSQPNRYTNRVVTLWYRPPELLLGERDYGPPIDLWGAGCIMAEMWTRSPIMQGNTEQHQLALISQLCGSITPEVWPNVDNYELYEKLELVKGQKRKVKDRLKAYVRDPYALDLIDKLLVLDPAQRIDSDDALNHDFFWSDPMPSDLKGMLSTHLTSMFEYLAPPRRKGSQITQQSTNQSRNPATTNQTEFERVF

COc1nc(N[C@H]2CC[C@H](NS(=O)(=O)CC(C)C)CC2)nc2[nH]nc(N3CCOC[C@H]3C)c12 [compound 39, N-(trans-4-((4-Methoxy-3-((R)-3-methylmorpholino)-1H-pyrazolo[3,4-d]pyrimidin-6-yl)amino)cyclohexyl)-2-methylpropane-1-sulfonamide]
≥ 20 µM: all assays above
